Reference: patent US8598365B2, “Herbicides” (Syngenta Limited, priority 2007, dated 2013)

Experiments:
Format in all cases: in vivo
[1] = tested on: Alopecurus myosuroides (ALOMY); test: Example B pre-emergence herbicidal activity; details: 312 h, evaluated after 13 days, read-out: Pre-Emergence Activity ALOMY (100=total damage to plant; 0=no damage to plant); for pest or weed control at 250 g/ha: rate 250 g/ha
Method: (§1) Seeds of a variety of test species were sown in standard soil in pots. After cultivation for one day (pre-emergence) or after 8 days cultivation (post-emergence) under controlled conditions in a glasshouse (at 24/16° C., day/night; 14 hours light; 65% humidity), the plants were sprayed with an aqueous spray solution derived from the formulation of the technical active ingredient in acetone/water (50:50) solution containing 0.5% Tween 20 (polyoxyethelyene sorbitan monolaurate, CAS RN 9005-64-5).
(§2) The test plants were then grown in a glasshouse under controlled conditions in a glasshouse (at 24/16° C., day/night; 14 hours light; 65% humidity) and watered twice daily. After 13 days for pre and post-emergence, the test was evaluated (100=total damage to plant; 0=no damage to plant).
(§3) Alopecurus myosuroides (ALOMY), Avena fatua (AVEFA), Setaria faberi (SETFA), Echinochloa crus-galli (ECHCG), Solanum nigrum (SOLNI) and Amaranthus retoflexus (AMARE)

[2] = tested on: Echinochloa crus-galli (ECHCG); test: Example B pre-emergence herbicidal activity; details: 312 h, evaluated after 13 days, read-out: Pre-Emergence Activity ECHCG (100=total damage to plant; 0=no damage to plant); for pest or weed control at 250 g/ha: rate 250 g/ha
Method: as §1, §2, §3

Avena fatua (AVEFA) [3] = test: Example B pre-emergence herbicidal activity; details: 312 h, evaluated after 13 days, read-out: Pre-Emergence Activity AVEFA (100=total damage to plant; 0=no damage to plant); for pest or weed control at 250 g/ha: rate 250 g/ha
Method: as §1, §2, §3

Setaria faberi (SETFA) [4] = test: Example B pre-emergence herbicidal activity; details: 312 h, evaluated after 13 days, read-out: Pre-Emergence Activity SETFA (100=total damage to plant; 0=no damage to plant); for pest or weed control at 250 g/ha: rate 250 g/ha
Method: as §1, §2, §3

[5] = tested on: Amaranthus retoflexus (AMARE); test: Example B pre-emergence herbicidal activity; details: Amaranthus retroflexus, 312 h, evaluated after 13 days, read-out: Pre-Emergence Activity AMARE (100=total damage to plant; 0=no damage to plant); for pest or weed control at 250 g/ha: rate 250 g/ha
Method: as §1, §2, §3

[6] = tested on: Alopecurus myosuroides (ALOMY); test: Example B post-emergence herbicidal activity; details: 312 h, evaluated after 13 days, read-out: Post-emergence activity ALOMY (100=total damage to plant; 0=no damage to plant); for pest or weed control at 250 g/ha: rate 250 g/ha
Method: as §1, §2, §3

[7] = tested on: Echinochloa crus-galli (ECHCG); test: Example B post-emergence herbicidal activity; details: 312 h, evaluated after 13 days, read-out: Post-emergence activity ECHCG (100=total damage to plant; 0=no damage to plant); for pest or weed control at 250 g/ha: rate 250 g/ha
Method: as §1, §2, §3

Avena fatua (AVEFA) [8] = test: Example B post-emergence herbicidal activity; details: 312 h, evaluated after 13 days, read-out: Post-emergence activity AVEFA (100=total damage to plant; 0=no damage to plant); for pest or weed control at 250 g/ha: rate 250 g/ha
Method: as §1, §2, §3

Setaria faberi (SETFA) [9] = test: Example B post-emergence herbicidal activity; details: 312 h, evaluated after 13 days, read-out: Post-emergence activity SETFA (100=total damage to plant; 0=no damage to plant); for pest or weed control at 250 g/ha: rate 250 g/ha
Method: as §1, §2, §3

[10] = tested on: Amaranthus retoflexus (AMARE); test: Example B post-emergence herbicidal activity; details: Amaranthus retroflexus, 312 h, evaluated after 13 days, read-out: Post-emergence activity AMARE (100=total damage to plant; 0=no damage to plant); for pest or weed control at 250 g/ha: rate 250 g/ha
Method: as §1, §2, §3

Structure (SMILES): Cc1sc(-c2ccc(Cl)c(Cl)c2)nc1C1C(=O)[C@@H]2CC[C@@H](C2)C1=O (stereo partly shown) [Compound T9]
- pest or weed control at 250 g/ha [1]: 30%
- pest or weed control at 250 g/ha [2]: 50%
- pest or weed control at 250 g/ha (Avena fatua (AVEFA) [3]): 0%
- pest or weed control at 250 g/ha (Setaria faberi (SETFA) [4]): 50%
- pest or weed control at 250 g/ha [5]: 0%
- pest or weed control at 250 g/ha [6]: 60%
- pest or weed control at 250 g/ha [7]: 70%
- pest or weed control at 250 g/ha (Avena fatua (AVEFA) [8]): 0%
- pest or weed control at 250 g/ha (Setaria faberi (SETFA) [9]): 100%
- pest or weed control at 250 g/ha [10]: 0%

Structure (SMILES): Cc1ccc(-c2nc(C3C(=O)[C@@H]4CC[C@@H](C4)C3=O)c(C)s2)cc1Cl (stereo partly shown) [Compound T10]
- pest or weed control at 250 g/ha [1]: 20%
- pest or weed control at 250 g/ha [2]: 60%
- pest or weed control at 250 g/ha (Avena fatua (AVEFA) [3]): 0%
- pest or weed control at 250 g/ha (Setaria faberi (SETFA) [4]): 20%
- pest or weed control at 250 g/ha [5]: 0%
- pest or weed control at 250 g/ha [6]: 20%
- pest or weed control at 250 g/ha [7]: 70%
- pest or weed control at 250 g/ha (Avena fatua (AVEFA) [8]): 0%
- pest or weed control at 250 g/ha (Setaria faberi (SETFA) [9]): 70%
- pest or weed control at 250 g/ha [10]: 0%

Structure (SMILES): Cc1ccc(-c2nc(C3C(=O)[C@@H]4CC[C@@H](C4)C3=O)c(C)s2)cc1 (stereo partly shown) [Compound T11]
- pest or weed control at 250 g/ha [1]: 40%
- pest or weed control at 250 g/ha [2]: 70%
- pest or weed control at 250 g/ha (Avena fatua (AVEFA) [3]): 0%
- pest or weed control at 250 g/ha (Setaria faberi (SETFA) [4]): 0%
- pest or weed control at 250 g/ha [5]: 0%
- pest or weed control at 250 g/ha [6]: 90%
- pest or weed control at 250 g/ha [7]: 100%
- pest or weed control at 250 g/ha (Avena fatua (AVEFA) [8]): 40%
- pest or weed control at 250 g/ha (Setaria faberi (SETFA) [9]): 80%
- pest or weed control at 250 g/ha [10]: 0%

Structure (SMILES): Cc1sc(-c2ccc(Cl)cc2F)nc1C1C(=O)[C@@H]2CC[C@@H](C2)C1=O (stereo partly shown) [Compound T13]
- pest or weed control at 250 g/ha [1]: 90%
- pest or weed control at 250 g/ha [2]: 100%
- pest or weed control at 250 g/ha (Avena fatua (AVEFA) [3]): 40%
- pest or weed control at 250 g/ha (Setaria faberi (SETFA) [4]): 100%
- pest or weed control at 250 g/ha [5]: 0%
- pest or weed control at 250 g/ha [6]: 100%
- pest or weed control at 250 g/ha [7]: 100%
- pest or weed control at 250 g/ha (Avena fatua (AVEFA) [8]): 90%
- pest or weed control at 250 g/ha (Setaria faberi (SETFA) [9]): 100%
- pest or weed control at 250 g/ha [10]: 0%

Structure (SMILES): Cc1cc(Cl)ccc1-c1nc(C2C(=O)[C@@H]3CC[C@@H](C3)C2=O)c(C)s1 (stereo partly shown) [Compound T14]
- pest or weed control at 1000 g/ha ([1]; rate 1000 g/ha): 30%
- pest or weed control at 1000 g/ha ([2]; rate 1000 g/ha): 90%
- pest or weed control at 1000 g/ha (Avena fatua (AVEFA) [3]; rate 1000 g/ha): 80%
- pest or weed control at 1000 g/ha (Setaria faberi (SETFA) [4]; rate 1000 g/ha): 70%
- pest or weed control at 1000 g/ha ([5]; rate 1000 g/ha): 0%
- pest or weed control at 1000 g/ha ([6]; rate 1000 g/ha): 90%
- pest or weed control at 1000 g/ha ([7]; rate 1000 g/ha): 100%
- pest or weed control at 1000 g/ha (Avena fatua (AVEFA) [8]; rate 1000 g/ha): 90%
- pest or weed control at 1000 g/ha (Setaria faberi (SETFA) [9]; rate 1000 g/ha): 100%
- pest or weed control at 1000 g/ha ([10]; rate 1000 g/ha): 20%

Structure (SMILES): CCc1sc(-c2ccc(Cl)c(C)c2)nc1C1C(=O)[C@@H]2CC[C@@H](C2)C1=O (stereo partly shown) [Compound T20]
- pest or weed control at 250 g/ha [1]: 50%
- pest or weed control at 250 g/ha [2]: 70%
- pest or weed control at 250 g/ha (Avena fatua (AVEFA) [3]): 0%
- pest or weed control at 250 g/ha (Setaria faberi (SETFA) [4]): 40%
- pest or weed control at 250 g/ha [5]: 0%
- pest or weed control at 250 g/ha [6]: 90%
- pest or weed control at 250 g/ha [7]: 100%
- pest or weed control at 250 g/ha (Avena fatua (AVEFA) [8]): 90%
- pest or weed control at 250 g/ha (Setaria faberi (SETFA) [9]): 90%
- pest or weed control at 250 g/ha [10]: 0%

Structure (SMILES): CCc1sc(-c2ccc(Cl)c(Cl)c2)nc1C1C(=O)[C@@H]2CC[C@@H](C2)C1=O (stereo partly shown) [Compound T22]
- pest or weed control at 250 g/ha [1]: 70%
- pest or weed control at 250 g/ha [2]: 80%
- pest or weed control at 250 g/ha (Avena fatua (AVEFA) [3]): 20%
- pest or weed control at 250 g/ha (Setaria faberi (SETFA) [4]): 100%
- pest or weed control at 250 g/ha [5]: 20%
- pest or weed control at 250 g/ha [6]: 90%
- pest or weed control at 250 g/ha [7]: 90%
- pest or weed control at 250 g/ha (Avena fatua (AVEFA) [8]): 90%
- pest or weed control at 250 g/ha (Setaria faberi (SETFA) [9]): 90%
- pest or weed control at 250 g/ha [10]: 0%
